Measurements reported in PMC3608737, “Odorant Metabolism Catalyzed by Olfactory Mucosal Enzymes Influences Peripheral Olfactory Responses in Rats” (PLoS ONE, 2013).
pIC50: −log10 of the molar value.

Assays:
olfactory epithelium [1] = settings: for EOG amplitude compared with parent compound (coumarin or 4-MC): 1, 10 and 100 µM, normalized to IBMX; for EOG amplitude compared with parent compound (coumarin or 4-MC) / EOG response compared with quinoline: vehicle 0.01% DMSO; for EOG response compared with quinoline: 100 µM, normalized to IBMX responses
Procedure: Odorant stock solutions (1 M) were prepared in DMSO. Working solutions were prepared extemporaneously by diluting stock solutions with the Ringer solution. […] The IBMX stock solution (10 mM) was also prepared in DMSO. This stock solution was diluted 100-fold with the Ringer solution to produce a working solution (100 µM) containing 0.1% DMSO.
To assess sensory responses induced by odorant stimulation of the olfactory mucosa, we recorded EOGs. […] Rats were sacrificed by CO2 exposure and decapitated. The head was hemisected and the nasal septum was carefully removed to expose the endoturbinate system of the main olfactory system. The tissue was then superfused continuously (5 mL/min) at room temperature (22–25°C) with modified Ringer buffer containing 140 mM NaCl, 5 mM KCl, 2 mM CaCl2, 2 mM MgCl2, 10 mM HEPES [4-(2-hydroxyethyl)-1-piperazineethanesulfonic acid], adjusted to pH 7.2 and to 320 mOsm.L^−1 with glucose. Odorant stimuli were applied to the turbinates using a custom-built odorant delivery system consisting of a Rheodyne six-port injection valve equipped with a 200-µL loop. This valve injects odorant into the continuous stream of the Ringer solution. The distal part of the delivery system was fixed to a micromanipulator and adjusted to produce uniform flow in the vicinity of the recording electrode. The recording electrode was an Ag/AgCl wire positioned in a disposable pipette tip filled with a conductive gel (WPI, Sarasota, USA). The reference electrode was an 8-mm diameter Ag/AgCl disk covered with conductive gel that was placed under the rat hemi-head. Electrical signals were amplified using an AC/DC differential amplifier (A-M Systems, model 3000, Phymep, Paris, France), run through a low-pass filter of 300 Hz, digitized at 100 Hz using a Digidata 1440A interface board (Axon Instruments, DIPSI Industrie, Châtillon, France) and acquired using Axoscope 10.2 software (Axon Instruments). The data were analyzed using Clampfit software (Axon Instruments). The peak amplitudes of EOG responses were measured at the maximum negative voltage deflection from baseline. The data were normalized by dividing the peak amplitude by the maximum amplitude elicited by 100 µM of IBMX, a phosphodiesterase inhibitor that activates the transduction pathway bypassing the receptor step.

CYP = test: Quinoline/coumarin metabolism in microsomes from OM superfused with inhibitor for 20 min; assay type: biochemical, rat; settings: 400 µM, superfusion 20 min
Procedure: Reactions were performed in triplicate at 37°C and were initiated by adding odorant to the mixtures after a 5-min pre-incubation period. […] Subsequently, the products were centrifuged at 12 000 g for 10 min. An aliquot of the supernatant (100 µl) was analyzed by reverse phase high performance liquid chromatography (HPLC) using a Waters HPLC system (Milford, MA, USA) equipped with a pump (model 600), an autosampler thermostat set at 10°C (model a717 plus), a photodiode array UV detector (model 996) and an Uptisphere C18-ODB column (5-µm particle size, 150×4.6 mm; Interchim, Montluçon, France). The effluent from the column was routed to an UV detector, which can scan wavelengths from 210 to 400 nm. […] The separation of coumarin and its metabolites was achieved using a solvent gradient program (at 0.6 mL/min) set at: 25% acetonitrile/75% formic acid (0.01% in water) for 10 min, a linear gradient to 80% acetonitrile for 20 min, hold at 80% acetonitrile for 10 min, and then return to the initial conditions.

CYPs [2] = test: Inhibition of coumarin metabolite formation in olfactory microsomes; assay type: biochemical, rat; settings: for pIC50: substrate coumarin
Procedure: (§1) Animals were sacrificed by decapitation. […] The resulting pellet was resuspended in homogenization buffer. Hepatic subcellular fractions were prepared as described previously.
(§2) Coumarin Quinoline Isoamyl acetate
(§3) Subcellular fraction olfactory hepatic olfactory/hepatic olfactory/hepatic
(§4) microsomes microsomes microsomes S9

olfactory epithelium [3] = test: Effect of XME inhibitors on odorant-induced EOG responses; parameters: species or system rat
Procedure: Rats were sacrificed by CO2 exposure and decapitated. […] The data were analyzed using Clampfit software (Axon Instruments).
First, two series of odorant stimulations at 2-min intervals were performed with an 8-min recovery period between each series. Under control conditions, a 2-min interval is sufficient to recover normal response amplitude. Then, the inhibitor was diluted in the Ringer buffer (final concentration 400 µM) and applied to the olfactory turbinates at a rate of 2.5 mL/min for 20 min using the Rheodyne injection valve. The preparation was rinsed for 5 min with the Ringer buffer and the epithelium was stimulated by applying odorant using the same procedures as described above. EOG responses were recorded on endoturbinate IIb. IBMX was applied at the end of each measurement series for data normalization as described above. In addition to the peak maximum amplitude, the onset slope (10% to 90%) and the fast decay slope (90% to 40%) were measured and normalized to the corresponding EOG peak amplitude.

CYPs [4] = test: Inhibition of quinoline metabolism catalyzed by olfactory microsomes; assay type: biochemical, rat; settings: for pIC50: substrate quinoline
Procedure: as §1, §2, §3, §4

carboxylesterases = test: Inhibition of isoamyl acetate hydrolysis in the olfactory S9 fraction; assay type: biochemical, rat
Procedure: as §1
(§5) Reactions involving isoamyl acetate were carried out for 10 min and were terminated by heating at 80°C for 15 min. After centrifugation at 12000 g for 10 min, isoamyl acetate metabolism was assessed by quantifying the acetate in a sample volume of 100 µL using an acetic acid assay kit (Megazyme, Bray, Ireland).
as §2, §3, §4

mammalian ORs = system: mammalian ORs; parameters: method as in PMID 19261596; settings: approximately 460 mammalian ORs; cited from earlier work
[5] = In vitro metabolism of coumarin by olfactory microsomes (HPLC); assay type: in vitro ADME, rat
Procedure: as §1, §2, §3, §4

[6] = In vitro metabolism of coumarin by hepatic microsomes (HPLC); assay type: in vitro ADME, rat; settings: liver (hepatic microsomes) incubation
Procedure: as §1, §2, §3, §4

carboxylesterase = test: Isoamyl acetate metabolism in S9 from OM superfused with inhibitor for 20 min; assay type: biochemical, rat; settings: 400 µM, superfusion 20 min
Procedure: To investigate the functional role of the olfactory XMEs, we recorded odorant-induced EOG responses before and after applying two phase I enzyme inhibitors, ABT and BNPP. First, we confirmed that superfusion of OM with ABT or BNPP was sufficient to inhibit CYP and carboxylesterase activities, respectively. For this purpose, the in vitro metabolism of quinoline, coumarin and isoamyl acetate was measured. All steps were performed as described previously except that the microsomal or S9 fractions were prepared from OM that had been superfused with inhibitors for 20 min. Superfusion of the OM with 400 µM of ABT or BNPP decreased the metabolism of quinoline/coumarin or isoamyl acetate, respectively, by approximately 30 to 80% (Fig. S6).
as §5

[7] = inhibitor 400 µM for 20 min, endoturbinate IIb

Structure (SMILES): O=c1ccc2ccc(O)cc2o1 [7-OH-C, 7-hydroxycoumarin]
- EOG amplitude compared with parent compound (coumarin or 4-MC) (olfactory epithelium [1]): significantly lower than those induced by their parent compounds

Structure (SMILES): Nn1nnc2ccccc21 [ABT, 1-aminobenzotriazole]
- decrease of metabolism of quinoline/coumarin after superfusion of the OM (CYP): 30 to 80%
- inhibition of coumarin metabolite formation (CYPs [2]; inhibitor 400 µM): Ninety percent
- pIC50 (CYPs [2]; read-out: IC50 for inhibition of 3-hydroxycoumarin formation): 4.39
- pIC50 (CYPs [2]; read-out: IC50 for inhibition of 6-hydroxycoumarin formation): 4.28
- pIC50 (CYPs [2]; read-out: IC50 for inhibition of 7-hydroxycoumarin formation): 4.72
- effect on EOG responses to isoamyl acetate (olfactory epithelium [3]; ABT 400 µM for 20 min, endoturbinate IIb): did not affect
- effect on onset and decay slopes of EOG recordings (olfactory epithelium [3]; inhibitor 400 µM for 20 min): unaffected
- increase of maximum EOG amplitude elicited by coumarin (olfactory epithelium [3]; [7]): 43%
- increase of maximum EOG amplitude elicited by quinoline (olfactory epithelium [3]; [7]): 32%
- decrease of the metabolism of quinoline (CYPs [4]; inhibitor 400 µM): approximately 80%
- pIC50 (CYPs [4]; read-out: IC50 for inhibition of quinoline-1-oxide formation): 3.87
- pIC50 (CYPs [4]; read-out: IC50 for inhibition of quinoline-5,6-epoxide formation): 3.83
- effect on isoamyl acetate hydrolysis (carboxylesterases; data not shown): no effect

Structure (SMILES): Cc1cc(=O)oc2ccccc12 [4-MC, 4-methyl-coumarin]
- EOG amplitude compared with parent compound (coumarin or 4-MC) (olfactory epithelium [1]): lower in amplitude than the responses to coumarin

Structure (SMILES): CC(=O)O [acetic acid]
- effect of repeated application on the OM (olfactory epithelium [1]): caused tissue damage

Structure (SMILES): O=c1ccc2ccccc2o1 [coumarin]
- number of ORs activated (mammalian ORs): 20
- rate of coumarin biotransformation ([5]; OM (olfactory microsomes) incubation): 13.3 nmol/min/mg protein
- rate of coumarin biotransformation, OM versus liver incubation ([5]; OM higher than liver): 65 fold
- rate of coumarin biotransformation [6]: 0.2 nmol/min/mg protein

Structure (SMILES): Cc1cc(=O)oc2cc(O[C@@H]3O[C@H](C(=O)O)[C@@H](O)[C@H](O)[C@H]3O)ccc12 [4-MU-G, 4-methylumbelliferone-β-D-glucuronide]
- EOG amplitude compared with parent compound (coumarin or 4-MC) (olfactory epithelium [1]): did not elicit any measurable EOG response

Structure (SMILES): O=c1cc(O)c2ccccc2o1 [4-OH-C, 4-hydroxycoumarin]
- number of ORs activated (mammalian ORs): only activated one OR
- EOG amplitude compared with parent compound (coumarin or 4-MC) (olfactory epithelium [1]): significantly lower than those induced by their parent compounds

Structure (SMILES): CC(C)CCO [isoamyl alcohol]
- EOG response amplitude, lower than that elicited by isoamyl acetate (olfactory epithelium [1]; at any concentration (1, 10, 100 µM)): approximately 60%

Structure (SMILES): O=[N+]([O-])c1ccc(OP(=O)(O)Oc2ccc([N+](=O)[O-])cc2)cc1 [BNPP, bis-p-nitro-phenylphosphate]
- effect on coumarin metabolism (CYPs [2]; data not shown): not affected
- effect on EOG responses elicited by coumarin (olfactory epithelium [3]; BNPP treatment, stated in the discussion only): but not those elicited by quinoline and coumarin
- effect on onset and decay slopes of EOG recordings (olfactory epithelium [3]; inhibitor 400 µM for 20 min): did not modify
- increase of maximal EOG response amplitude to isoamyl acetate (olfactory epithelium [3]; [7]): 30%
- effect on olfactory metabolism of quinoline (CYPs [4]; data not shown): not affected
- decrease of metabolism of isoamyl acetate after superfusion of the OM (carboxylesterase): 30 to 80%
- pIC50 (carboxylesterases; olfactory S9 fraction): 6.10

Structure (SMILES): Oc1cccc2cccnc12 [8-OH-Q, 8-hydroxyquinoline]
- EOG response compared with quinoline (olfactory epithelium [1]): half of that elicited by quinoline

Structure (SMILES): Cc1cc(=O)oc2cc(O)ccc12 [4-MU, 4-methylumbelliferone]
- EOG amplitude compared with parent compound (coumarin or 4-MC) (olfactory epithelium [1]): significantly lower than those induced by their parent compounds

Structure (SMILES): [O-][n+]1cccc2ccccc21 [Q-1-O, quinoline-1-oxide]
- EOG response compared with quinoline (olfactory epithelium [1]): half of that elicited by quinoline
